The target of series [1] is Nitric oxide synthase, inducible (Homo sapiens, UniProt P35228). Description: Inhibition of human iNOS expressed in HEK293 cells assessed as NO production by 2,3-diaminonapthalene-based fluorescence assay. The class given is cell-based.
Series [2] concerns the target Nitric oxide synthase 1 (Homo sapiens, UniProt P29475). Nature of the series: Inhibition of human nNOS expressed in HEK293 cells assessed as NO production by 2,3-diaminonapthalene-based fluorescence assay. The class given is cell-based.
The species entered for series [3] is Homo sapiens. Nature of the series: Selectivity ratio of IC50 for human eNOS to IC50 for human iNOS.
The target of series [4] is T1, Nitric oxide synthase 3 (Homo sapiens, UniProt P29474).
T1 sequence (P29474 whole entry): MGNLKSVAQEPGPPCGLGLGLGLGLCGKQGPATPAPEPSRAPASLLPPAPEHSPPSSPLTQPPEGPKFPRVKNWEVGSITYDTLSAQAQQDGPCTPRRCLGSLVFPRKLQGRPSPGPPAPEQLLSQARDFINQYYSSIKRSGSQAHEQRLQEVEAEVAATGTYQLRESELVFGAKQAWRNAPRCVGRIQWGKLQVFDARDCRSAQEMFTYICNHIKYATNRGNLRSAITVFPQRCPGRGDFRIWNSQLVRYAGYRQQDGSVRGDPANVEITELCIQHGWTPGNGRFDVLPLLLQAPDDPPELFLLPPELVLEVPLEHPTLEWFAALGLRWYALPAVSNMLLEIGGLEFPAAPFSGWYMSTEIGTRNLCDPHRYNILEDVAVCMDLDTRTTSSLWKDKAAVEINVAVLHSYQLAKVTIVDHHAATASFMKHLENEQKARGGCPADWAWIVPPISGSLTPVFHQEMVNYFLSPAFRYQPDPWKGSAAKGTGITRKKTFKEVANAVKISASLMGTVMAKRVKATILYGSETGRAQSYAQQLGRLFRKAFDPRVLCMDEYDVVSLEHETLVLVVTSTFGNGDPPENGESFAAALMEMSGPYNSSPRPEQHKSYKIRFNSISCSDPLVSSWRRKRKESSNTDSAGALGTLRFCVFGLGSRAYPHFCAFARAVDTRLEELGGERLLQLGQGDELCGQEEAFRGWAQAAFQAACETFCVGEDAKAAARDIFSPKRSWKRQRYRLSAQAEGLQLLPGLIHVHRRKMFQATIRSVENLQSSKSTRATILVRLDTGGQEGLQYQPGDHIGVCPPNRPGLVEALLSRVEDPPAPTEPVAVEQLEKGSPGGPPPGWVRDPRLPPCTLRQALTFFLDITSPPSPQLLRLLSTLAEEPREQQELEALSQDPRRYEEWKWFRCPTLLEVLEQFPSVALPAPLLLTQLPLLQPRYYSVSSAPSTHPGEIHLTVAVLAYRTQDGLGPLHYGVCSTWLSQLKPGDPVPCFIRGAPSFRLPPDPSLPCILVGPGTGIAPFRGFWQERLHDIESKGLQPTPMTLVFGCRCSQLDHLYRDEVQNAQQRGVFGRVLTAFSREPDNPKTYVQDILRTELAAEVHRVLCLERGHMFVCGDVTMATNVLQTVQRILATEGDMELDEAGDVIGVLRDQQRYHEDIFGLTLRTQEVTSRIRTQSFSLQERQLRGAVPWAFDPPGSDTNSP
Description: Inhibition of human eNOS expressed in HEK293 cells assessed as NO production by 2,3-diaminonapthalene-based fluorescence assay. Type of series: cell-based.

Series [5] has as its target Nitric oxide sythases; iNOS & nNOS (Homo sapiens) (UniProt P29475+P35228). Description: Selectivity ratio of IC50 for human nNOS to IC50 for human iNOS.
The target in series [6] is T2, Nitric oxide synthase 3 (Homo sapiens) (UniProt P29474).
T2 sequence (whole entry): T1 sequence (P29474 whole entry)
Nature of the series: Inhibition of human eNOS expressed in HEK293 cells assessed as NO production at 30 uM by 2,3-diaminonapthalene-based fluorescence assay. Type of series: cell-based.

Series [7] is described as follows: Half life in mouse liver microsomes. Type of series: ADME, Microsome. Background: Liver microsomes are a subcellular fraction often used to study metabolism.
The test system of series [8] is Mus musculus. Description: Antiinflammatory activity in mouse assessed as reduction in LPS-induced nitatre level in plasma at 30 mg/kg, po. Type of series: functional. The arrangement: scale not given: the % may be the effect or the level left.

What is called pIC50 is the IC50 on a negative log10 scale, so that one unit is a factor of ten. In general, inhibition refers to how much of the control response was suppressed. For orientation: half-life means how long it takes for the measured level to halve.

pIC50: −log10 of the molar value.

Nitric oxide sythases; iNOS & nNOS (Homo sapiens), sequence (P29475 whole entry, looked up): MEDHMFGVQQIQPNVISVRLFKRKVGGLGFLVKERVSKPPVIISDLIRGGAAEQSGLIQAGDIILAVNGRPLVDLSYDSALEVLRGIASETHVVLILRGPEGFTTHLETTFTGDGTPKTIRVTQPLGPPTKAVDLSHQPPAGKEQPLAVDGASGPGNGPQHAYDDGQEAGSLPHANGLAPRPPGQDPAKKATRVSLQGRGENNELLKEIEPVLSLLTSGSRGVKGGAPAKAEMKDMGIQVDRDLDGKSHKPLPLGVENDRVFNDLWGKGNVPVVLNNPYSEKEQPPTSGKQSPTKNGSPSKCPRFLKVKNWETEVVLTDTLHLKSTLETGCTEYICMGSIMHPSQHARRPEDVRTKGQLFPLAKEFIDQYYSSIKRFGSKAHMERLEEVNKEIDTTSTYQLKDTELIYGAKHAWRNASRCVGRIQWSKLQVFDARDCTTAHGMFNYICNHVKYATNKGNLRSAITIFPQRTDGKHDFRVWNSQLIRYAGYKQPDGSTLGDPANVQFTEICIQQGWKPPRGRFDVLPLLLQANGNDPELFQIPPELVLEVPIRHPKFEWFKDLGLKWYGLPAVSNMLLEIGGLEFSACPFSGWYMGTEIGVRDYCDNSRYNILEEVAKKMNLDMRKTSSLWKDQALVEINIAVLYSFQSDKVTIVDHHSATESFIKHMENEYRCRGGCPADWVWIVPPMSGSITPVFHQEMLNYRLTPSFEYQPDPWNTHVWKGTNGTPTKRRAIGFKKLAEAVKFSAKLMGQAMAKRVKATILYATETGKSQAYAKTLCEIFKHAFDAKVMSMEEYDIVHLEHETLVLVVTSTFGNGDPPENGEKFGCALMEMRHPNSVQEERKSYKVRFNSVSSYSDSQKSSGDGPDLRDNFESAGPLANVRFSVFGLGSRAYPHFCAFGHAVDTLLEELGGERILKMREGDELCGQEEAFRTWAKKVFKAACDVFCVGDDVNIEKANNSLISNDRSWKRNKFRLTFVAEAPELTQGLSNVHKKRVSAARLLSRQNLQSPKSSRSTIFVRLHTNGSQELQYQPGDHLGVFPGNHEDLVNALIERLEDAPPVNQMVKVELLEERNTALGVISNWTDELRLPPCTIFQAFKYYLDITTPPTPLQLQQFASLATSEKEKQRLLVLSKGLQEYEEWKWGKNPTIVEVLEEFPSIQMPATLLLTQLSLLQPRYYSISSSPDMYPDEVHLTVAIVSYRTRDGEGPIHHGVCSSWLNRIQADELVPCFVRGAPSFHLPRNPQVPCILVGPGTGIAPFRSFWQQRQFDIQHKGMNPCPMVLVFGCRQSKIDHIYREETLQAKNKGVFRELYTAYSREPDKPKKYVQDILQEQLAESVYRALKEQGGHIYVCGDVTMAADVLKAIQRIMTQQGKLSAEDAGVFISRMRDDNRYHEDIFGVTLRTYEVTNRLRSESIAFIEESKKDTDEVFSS
Nitric oxide sythases; iNOS & nNOS (Homo sapiens), sequence (P35228 whole entry, looked up): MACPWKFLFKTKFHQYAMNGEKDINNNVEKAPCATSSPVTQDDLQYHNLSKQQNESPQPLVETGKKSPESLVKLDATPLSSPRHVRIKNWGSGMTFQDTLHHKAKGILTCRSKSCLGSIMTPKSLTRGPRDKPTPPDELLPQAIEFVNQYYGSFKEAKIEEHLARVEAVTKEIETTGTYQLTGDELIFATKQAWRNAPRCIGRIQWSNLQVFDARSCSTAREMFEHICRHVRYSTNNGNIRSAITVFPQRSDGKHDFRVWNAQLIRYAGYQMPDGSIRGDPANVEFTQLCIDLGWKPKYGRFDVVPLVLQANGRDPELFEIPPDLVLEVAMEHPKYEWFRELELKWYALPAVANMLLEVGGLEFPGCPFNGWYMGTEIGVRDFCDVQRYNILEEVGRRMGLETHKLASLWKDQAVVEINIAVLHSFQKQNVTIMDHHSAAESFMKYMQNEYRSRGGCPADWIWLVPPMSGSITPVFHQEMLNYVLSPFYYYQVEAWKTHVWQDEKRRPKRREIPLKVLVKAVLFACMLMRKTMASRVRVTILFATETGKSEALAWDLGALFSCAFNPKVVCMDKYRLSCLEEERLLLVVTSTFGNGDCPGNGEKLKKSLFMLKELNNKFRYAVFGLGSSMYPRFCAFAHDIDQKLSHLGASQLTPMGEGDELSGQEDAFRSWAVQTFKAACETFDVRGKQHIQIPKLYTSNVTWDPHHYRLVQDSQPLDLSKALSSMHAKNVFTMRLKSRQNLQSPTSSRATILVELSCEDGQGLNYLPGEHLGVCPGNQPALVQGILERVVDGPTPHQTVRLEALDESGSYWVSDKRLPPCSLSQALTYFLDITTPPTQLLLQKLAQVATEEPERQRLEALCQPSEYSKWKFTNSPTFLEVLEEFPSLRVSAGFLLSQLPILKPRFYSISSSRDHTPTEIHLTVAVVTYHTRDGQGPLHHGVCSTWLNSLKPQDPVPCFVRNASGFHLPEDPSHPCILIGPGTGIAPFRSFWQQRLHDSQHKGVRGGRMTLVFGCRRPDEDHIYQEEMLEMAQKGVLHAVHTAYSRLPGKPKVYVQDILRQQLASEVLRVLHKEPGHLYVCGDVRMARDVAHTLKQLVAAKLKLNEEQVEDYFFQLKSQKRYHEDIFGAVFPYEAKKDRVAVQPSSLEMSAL
Nitric oxide synthase 1, sequence (P29475 whole entry): as the sequence (P29475 whole entry, looked up) above
Nitric oxide synthase, inducible, sequence (P35228 whole entry): as the sequence (P35228 whole entry, looked up) above

Regarding `O=c1cc(CN(Cc2ccccc2F)c2cnccn2)c2ccc(F)c(F)c2[nH]1`, the figures for the pIC50 in series [1], in series [2] and in series [4] were 7.92, 7.19 and 4.96, respectively. Besides, the Ratio IC50 was determined as 900 in series [3] and 5 in series [5].

With `O=c1cc(CN(Cc2ccccc2Cl)c2cnccn2)c2ccc(F)c(F)c2[nH]1`, the results for the pIC50 in series [1], in series [2] and in series [4] were 7.92, 7.22 and 4.92, respectively. Besides, the figures for the Ratio IC50 in series [3] and in series [5] were 1000 and 5, respectively.

With `O=c1cc(CN(c2cccc(Cl)c2)c2ccccn2)c2ccc(F)c(F)c2[nH]1`, the figures for the pIC50 in series [1], in series [2] and in series [4] were 7.51, 6.77 and less than 4.52, respectively. The Ratio IC50 in series [3] was more than 1000; in series [5] it was 5. In addition, the inhibition in series [6] is less than 50%.

In the case of `Cc1ccccc1CN(Cc1cc(=O)[nH]c2c(F)c(F)ccc12)c1cnccn1`, the pIC50 is 8.00 in series [1], 7.34 in series [2] and 4.89 in series [4]. In addition, the results for the Ratio IC50 in series [3] and in series [5] were 1300 and 5, respectively.

On to `Cn1ncc2c(N(Cc3cc(=O)[nH]c4c(F)c(F)ccc34)c3cccc(Cl)c3)ncnc21`, for which, in series [7], the half-life is less than 30 min. Also, the pIC50 in series [1] is 7.96; in series [2], 7.21; in series [4], 5.08. Moreover, in series [3], the Ratio IC50 stood at 730.

For the compound `O=c1cc(CN(c2cccc(Cl)c2)c2ccncn2)c2ccc(F)c(F)c2[nH]1`, the pIC50 in series [1] is 7.85; in series [2], 6.82; in series [4] it was 4.89. Besides, the Ratio IC50 in series [3] is 1000; in series [5], 11.

`O=c1cc(CN(Cc2ccccn2)c2cnccn2)c2ccc(F)c(F)c2[nH]1` displayed a half-life in series [7] of less than 20 min. Besides, the values for the pIC50 in series [1], in series [2] and in series [4] were 7.11, 6.36 and 4.96, respectively. Also, the values for the Ratio IC50 in series [3] and in series [5] were 140 and 6, respectively.

With `Cc1cccnc1N(Cc1cc(=O)[nH]c2c(F)c(F)ccc12)c1cccc(Cl)c1`, the pIC50 in series [1] was 6.46; in series [4], less than 4.52. Further, the Ratio IC50 in series [3] is more than 85. Besides, the inhibition in series [6] is less than 50%.

Take `Fc1ccc2c(CN(c3cccc(Cl)c3)c3ncccn3)cncc2c1F`: in series [1], the pIC50 is 6.70. Further, the Ratio IC50 in series [3] was more than 1000.

`O=c1cc(CN(c2cccc(Cl)c2)c2ncccn2)c2ccc(F)c(F)c2[nH]1`: the pIC50 in series [1] is 7.89; in series [2] it was 7.16; in series [4], 5.26. For the same compound, the figures for the Ratio IC50 in series [3] and in series [5] were 425 and 5, respectively.

In series [7], `O=c1cc(CN(Cc2cccc(Cl)c2)c2cnccn2)c2ccc(F)c(F)c2[nH]1` yielded a half-life of less than 20 min. The pIC50 in series [1] was 6.66; in series [2], 6.48; in series [4], 5.08. In addition, the figures for the Ratio IC50 in series [3] and in series [5] were 40 and 2, respectively.

Take `O=c1cc(CN(c2cccc(Cl)c2)c2cccnn2)c2ccc(F)c(F)c2[nH]1`: the pIC50 is 7.37 in series [1], 6.44 in series [2] and 4.68 in series [4]. Moreover, the results for the Ratio IC50 in series [3] and in series [5] were 500 and 8, respectively.

For the compound `Cc1cc(N(Cc2cc(=O)[nH]c3c(F)c(F)ccc23)c2cccc(Cl)c2)ncn1`, the figures for the pIC50 in series [1], in series [2] and in series [4] were 7.28, 6.80 and less than 4.52, respectively. In addition, the Ratio IC50 in series [3] is more than 500; in series [5] it was 3. In addition, the inhibition in series [6] was less than 50%.

`O=c1cc(CN(Cc2ccccc2)c2cnccn2)c2ccc(F)c(F)c2[nH]1`: the pIC50 was 7.89 in series [1], 7.00 in series [2] and 5.19 in series [4]. Moreover, the results for the Ratio IC50 in series [3] and in series [5] were 500 and 8, respectively.

Consider `O=c1cc(CN(c2ccccc2)c2cccc(Cl)c2)c2ccc(F)c(F)c2[nH]1`, for which the pIC50 in series [1] was 5.82; in series [4], less than 4.52. Besides, the Ratio IC50 in series [3] is more than 20. In series [6], the inhibition is less than 50%.

In the case of `COc1cc(N(Cc2cc(=O)[nH]c3c(F)c(F)ccc23)c2cccc(Cl)c2)ncn1`, the pIC50 was 7.21 in series [1], 6.89 in series [2] and less than 4.52 in series [4]. Further, the Ratio IC50 in series [3] was more than 500; in series [5], 2. Further, in series [6], the inhibition was less than 50%.

Take `O=c1cc(CN(c2cccnc2)c2cccc(Cl)c2)c2ccc(F)c(F)c2[nH]1`: the results for the pIC50 in series [1], in series [2] and in series [4] were 7.11, 6.43 and 4.85, respectively. Also, the Ratio IC50 in series [3] amounted to 180; in series [5] it was 5.

As to `[O-][n+]1cc(CN(c2cccc(Cl)c2)c2ncccn2)c2ccc(F)c(F)c2c1`, in series [1], the pIC50 is 7.77. For the same compound, the Ratio IC50 in series [3] was more than 1000; in series [5], 9.

`CN(C)c1cc(N(Cc2cc(=O)[nH]c3c(F)c(F)ccc23)c2cccc(Cl)c2)ncn1`: the negative-log IC50 (pIC50) in series [1] was 7.55; in series [2], 6.30; in series [4], less than 4.52. The Ratio IC50 in series [3] is more than 1000; in series [5] it was 20. The inhibition in series [6] is less than 50%.

Regarding `O=c1cc(CN(c2ccncc2)c2cccc(Cl)c2)c2ccc(F)c(F)c2[nH]1`, the pIC50 is 6.89 in series [1], 6.62 in series [2] and 4.64 in series [4]. Also, the Ratio IC50 is 170 in series [3] and 2 in series [5].

Consider `CN(C)c1nccc(N(Cc2cc(=O)[nH]c3c(F)c(F)ccc23)c2cccc(Cl)c2)n1`, for which the negative-log IC50 (pIC50) in series [1] was 5.89; in series [4] it was less than 4.52. Also, the Ratio IC50 in series [3] is more than 20. Also, the inhibition in series [6] was less than 50%.

The compound `Cc1nccc(N(Cc2cc(=O)[nH]c3c(F)c(F)ccc23)c2cccc(Cl)c2)n1` gave a half-life in series [7] of 90 min. Besides, the results for the pIC50 in series [1], in series [2] and in series [4] were 7.48, 6.67 and 5.12, respectively. Moreover, in series [8], the Activity worked out at 55%. Besides, the Ratio IC50 in series [3] came out at 230; in series [5], 7.

For the compound `O=c1cc(CN(c2cncnc2)c2cccc(Cl)c2)c2ccc(F)c(F)c2[nH]1`, the negative logarithm of the IC50 (pIC50) was 6.68 in series [1], 5.80 in series [2] and 4.10 in series [4]. Also, the values for the Ratio IC50 in series [3] and in series [5] were 375 and 8, respectively.

In series [7], `O=c1cc(CN(Cc2ccc(Cl)cc2)c2cnccn2)c2ccc(F)c(F)c2[nH]1` showed a half-life of less than 20 min. Moreover, the figures for the pIC50 in series [1], in series [2] and in series [4] were 7.11, 6.92 and 5.15, respectively. In addition, the Ratio IC50 in series [3] is 90; in series [5] it was 2.
